Among the data in US20250011318A1 (ARCUS BIOSCIENCES, INC., priority 2023, published 2025) are IC50 and EC50 values, retold here.

For one assay, the target named is T1, Cbl-b (Homo sapiens, UniProt Q13191).
T1 construct: biotin (biotinylated)
The experiment in a line: Cbl-b probe displacement HTRF binding assay. To be noted: 0.4 nM biotinylated Cbl-b, 150 nM BODIPY probe. The essentials:
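Probe-displacement HTRF in Hepes/NaCl/Triton/TCEP/BSA buffer at room temperature: compound dilutions (to 10 μM) incubated 60 min with 0.4 nM biotin-Cbl-b, 150 nM BODIPY probe added for 15 min, Tb-streptavidin read. Signal normalised to DMSO and no-protein controls; IC50 from four-parameter curve.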
(TR-FRET usually uses a lanthanide donor and a delayed reading to cut background.)

Another assay concerns Jurkat cells. The assay is described as follows: IL-2 secretion assay in CD3/CD28-activated Jurkat cells (AlphaLISA). It is filed as cell-based, human. To be noted: Homo sapiens, CD3/CD28 T Cell Activator, 24 h, IL-2 AlphaLISA. The essentials:
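IL-2 release quantified by AlphaLISA in supernatants after 24 h CD3/CD28 activation at 37° C. Compounds, 10 μM to 300 pM final in 1:2 steps, were added to 50,000 Jurkat cells/well 1 h before activation; 4-parameter fit gave EC50.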

SMILES strings stand for the structures. Bounds are passed on as bounds.

T1 sequence (Q13191 whole entry, species assumed): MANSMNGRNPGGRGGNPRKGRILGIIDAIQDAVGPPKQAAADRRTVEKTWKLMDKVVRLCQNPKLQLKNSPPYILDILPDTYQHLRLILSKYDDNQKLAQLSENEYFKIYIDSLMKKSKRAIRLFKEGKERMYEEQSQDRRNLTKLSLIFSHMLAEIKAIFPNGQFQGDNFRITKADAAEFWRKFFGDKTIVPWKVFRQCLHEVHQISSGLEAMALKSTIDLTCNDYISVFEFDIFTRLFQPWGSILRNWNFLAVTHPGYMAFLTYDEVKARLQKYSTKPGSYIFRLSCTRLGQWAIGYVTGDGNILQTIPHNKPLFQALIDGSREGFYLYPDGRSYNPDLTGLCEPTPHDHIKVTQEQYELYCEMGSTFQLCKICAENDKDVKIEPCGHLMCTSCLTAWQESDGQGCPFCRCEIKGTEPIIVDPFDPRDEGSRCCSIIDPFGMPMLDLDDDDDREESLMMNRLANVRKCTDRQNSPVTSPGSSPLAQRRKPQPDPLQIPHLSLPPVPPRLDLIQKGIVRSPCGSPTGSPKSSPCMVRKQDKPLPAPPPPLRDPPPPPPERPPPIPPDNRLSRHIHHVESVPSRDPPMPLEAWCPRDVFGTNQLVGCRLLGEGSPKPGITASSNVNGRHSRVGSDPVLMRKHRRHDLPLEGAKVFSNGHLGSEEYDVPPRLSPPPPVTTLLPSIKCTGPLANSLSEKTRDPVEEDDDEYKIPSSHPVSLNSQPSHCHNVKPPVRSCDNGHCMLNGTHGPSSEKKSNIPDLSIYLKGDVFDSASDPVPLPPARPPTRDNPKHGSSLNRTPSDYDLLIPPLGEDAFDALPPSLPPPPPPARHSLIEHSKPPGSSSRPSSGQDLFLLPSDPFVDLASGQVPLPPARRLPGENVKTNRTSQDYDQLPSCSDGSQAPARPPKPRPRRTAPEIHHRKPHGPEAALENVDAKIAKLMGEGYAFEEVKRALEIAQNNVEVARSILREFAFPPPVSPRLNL

Regarding `Cn1cnnc1-c1cc(F)ccc1-c1cc(C2CC2)nc(-n2cc(C#N)c3cc(C(O)C4CCOC4)[nH]c3c2=O)c1` (centres unmarked) [Example 90, 6-{6-cyclopropyl-4-[4-fluoro-2-(4-methyl-4H-1,2,4-triazol-3-yl)phenyl]-2-pyridyl}-2-[hydroxy(tetrahydro-3-furyl)methyl]-7-oxo-1,6-dihydro-1,6-diaza-4-indenecarbonitrile], at Cbl-b, the IC50 is less than 0.1 µM. The compound also came in with an EC50 with Jurkat cells of 0.1 to 1 µM.

For `Cn1cnnc1-c1cc(F)ccc1-c1cc(C2CC2)nc(-n2cc(C#N)c3cc(C(O)C4CCCC4)[nH]c3c2=O)c1` (centres unmarked) [Example 91, 2-(cyclopentylhydroxymethyl)-6-{6-cyclopropyl-4-[4-fluoro-2-(4-methyl-4H-1,2,4-triazol-3-yl)phenyl]-2-pyridyl}-7-oxo-1,6-dihydro-1,6-diaza-4-indenecarbonitrile], the IC50 on Cbl-b is less than 0.1 µM. Also, the EC50 in the assay on Jurkat cells is less than 0.1 µM.

Turning to `Cn1cnnc1-c1cc(F)ccc1-c1cc(C2CC2)nc(-n2cc(C#N)c3cc(C(O)c4cccnc4)[nH]c3c2=O)c1` (centres unmarked) [Example 92, 6-{6-Cyclopropyl-4-[4-fluoro-2-(4-methyl-4H-1,2,4-triazol-3-yl)phenyl]-2-pyridyl}-2-[hydroxy(3-pyridyl)methyl]-7-oxo-1,6-dihydro-1,6-diaza-4-indenecarbonitrile], the IC50 at Cbl-b was less than 0.1 µM. For the same compound, the EC50 with Jurkat cells is less than 0.1 µM.

On Cbl-b, `Cc1cccc(C(O)c2cc3c(C#N)cn(-c4cc(-c5ccc(F)cc5-c5nncn5C)cc(C5CC5)n4)c(=O)c3[nH]2)n1` (centres unmarked) [Example 93, 6-{6-cyclopropyl-4-[4-fluoro-2-(4-methyl-4H-1,2,4-triazol-3-yl)phenyl]-2-pyridyl}-2-[hydroxy(6-methyl-2-pyridyl)methyl]-7-oxo-1,6-dihydro-1,6-diaza-4-indenecarbonitrile] returned an IC50 of less than 0.1 µM. The compound further registered an EC50 in the assay with Jurkat cells of less than 0.1 µM.

`Cn1cnnc1-c1cc(F)ccc1-c1cc(C2CC2)nc(-n2cc(C#N)c3cc(C(N)c4cccnc4)[nH]c3c2=O)c1` (centres unmarked) [Example 94, 2-[Amino(3-pyridyl)methyl]-6-{6-cyclopropyl-4-[4-fluoro-2-(4-methyl-4H-1,2,4-triazol-3-yl)phenyl]-2-pyridyl}-7-oxo-1,6-dihydro-1,6-diaza-4-indenecarbonitrile] gave an IC50 on Cbl-b of less than 0.1 µM. The EC50 in the assay with Jurkat cells lay in the range of 0.1 to 1 µM.

On Cbl-b, `Cc1cccc(C(N)c2cc3c(C#N)cn(-c4cc(-c5ccc(F)cc5-c5nncn5C)cc(C5CC5)n4)c(=O)c3[nH]2)n1` (centres unmarked) [Example 95, 2-[amino(6-methyl-2-pyridyl)methyl]-6-{6-cyclopropyl-4-[4-fluoro-2-(4-methyl-4H-1,2,4-triazol-3-yl)phenyl]-2-pyridyl}-7-oxo-1,6-dihydro-1,6-diaza-4-indenecarbonitrile] came in with an IC50 of less than 0.1 µM. In addition, the EC50 in the assay on Jurkat cells lay within 0.1 to 1 µM.

`Cn1cnnc1-c1cc(F)ccc1-c1cc(C2CC2)nc(-n2cc(C#N)c3cc(CC4(O)CCCCC4)[nH]c3c2=O)c1` [Example 96, 6-{6-cyclopropyl-4-[4-fluoro-2-(4-methyl-4H-1,2,4-triazol-3-yl)phenyl]-2-pyridyl}-2-[(1-hydroxycyclohexyl)methyl]-7-oxo-1,6-dihydro-1,6-diaza-4-indenecarbonitrile] returned a half-inhibitory concentration (IC50) at Cbl-b of less than 0.1 µM. In addition, the concentration giving a half-maximal response (EC50) in the assay with Jurkat cells was less than 0.1 µM.

In turn, `Cn1cnnc1-c1cc(F)ccc1-c1cc(C2CC2)nc(-n2cc(C#N)c3cc([C@@H](N)C(F)(F)F)[nH]c3c2=O)c1` [Example 97, 2-[(R)-1-amino-2,2,2-trifluoroethyl]-6-{6-cyclopropyl-4-[4-fluoro-2-(4-methyl-4H-1,2,4-triazol-3-yl)phenyl]-2-pyridyl}-7-oxo-1,6-dihydro-1,6-diaza-4-indenecarbonitrile] had a concentration for half-maximal inhibition (IC50) on Cbl-b of less than 0.1 µM. In the assay with Jurkat cells, this compound yielded an EC50 of 0.1 to 1 µM.

At Cbl-b, `Cn1cnnc1-c1cc(F)ccc1-c1cc(C2CC2)nc(-n2cc(C#N)c3cc([C@H](N)C(F)(F)F)[nH]c3c2=O)c1` [Example 98, 2-[(S)-1-amino-2,2,2-trifluoroethyl]-6-{6-cyclopropyl-4-[4-fluoro-2-(4-methyl-4H-1,2,4-triazol-3-yl)phenyl]-2-pyridyl}-7-oxo-1,6-dihydro-1,6-diaza-4-indenecarbonitrile] had an IC50 of less than 0.1 µM. Also, in the assay with Jurkat cells, the EC50 was less than 0.1 µM.

`C[C@H]1CCCN(Cc2cc3c(S(C)(=O)=O)cn(-c4cc(-c5ccc(C#N)cc5-c5nccn5C)cc(C5CC5)n4)c(=O)c3[nH]2)C1` [Example 99, 4-[2-(2-{[(S)-3-methyl-1-piperidyl]methyl}-4-mesyl-7-oxo-1,6-dihydro-1,6-diaza-6-indenyl)-6-cyclopropyl-4-pyridyl]-3-(1-methyl-2-imidazolyl)benzonitrile]: the IC50 on Cbl-b is less than 0.1 µM. In the assay with Jurkat cells, this compound registered an EC50 of less than 0.1 µM.

As for `CC1(NCc2cc3c(C4CC4)cn(-c4cc(-c5ccc(F)cc5-n5nccc5C(F)(F)F)cc(C5CC5)n4)c(=O)c3[nH]2)CCC1` [Example 103, 4-cyclopropyl-6-[6-cyclopropyl-4-[4-fluoro-2-[5-(trifluoromethyl)pyrazol-1-yl]phenyl]pyridin-2-yl]-2-[[(1-methylcyclobutyl)amino]methyl]-1H-pyrrolo[2,3-c]pyridin-7-one], the IC50 on Cbl-b is less than 0.1 µM. This compound displayed an EC50 in the assay on Jurkat cells of 0.1 to 1 µM.

At Cbl-b, `COCCNCc1cc2ncn(-c3cc(-c4ccc(F)cc4-n4nccc4C(F)(F)F)cc(C4CC4)n3)c(=O)c2[nH]1` [Example 104, 3-[6-cyclopropyl-4-[4-fluoro-2-[5-(trifluoromethyl)pyrazol-1-yl]phenyl]pyridin-2-yl]-6-[(2-methoxyethylamino)methyl]-5H-pyrrolo[3,2-d]pyrimidin-4-one] came in with an IC50 of less than 0.1 µM. In addition, in the assay with Jurkat cells, the EC50 lay in the range of 0.1 to 1 µM.

As to `CC1(NCc2cc3ncn(-c4cc(-c5ccc(F)cc5-n5nccc5C(F)(F)F)cc(C5CC5)n4)c(=O)c3[nH]2)CCC1` [Example 105, 3-[6-cyclopropyl-4-[4-fluoro-2-[5-(trifluoromethyl)pyrazol-1-yl]phenyl]pyridin-2-yl]-6-[[(1-methylcyclobutyl)amino]methyl]-5H-pyrrolo[3,2-d]pyrimidin-4-one], at Cbl-b, the IC50 was less than 0.1 µM. This compound also returned a concentration for a half-maximal effect (EC50) in the assay with Jurkat cells of 0.1 to 1 µM.

The compound `Cc1ccnnc1-c1cc(F)ccc1-c1cc(C2CC2)nc(-n2cnc3cc(CN4CCO[C@H](C)C4)[nH]c3c2=O)c1` [Example 106, 3-[6-cyclopropyl-4-[4-fluoro-2-(4-methylpyridazin-3-yl)phenyl]pyridin-2-yl]-6-[[(2R)-2-methylmorpholin-4-yl]methyl]-5H-pyrrolo[3,2-d]pyrimidin-4-one] showed an IC50 on Cbl-b of less than 0.1 µM. This compound also showed a half-maximal effective concentration (EC50) with Jurkat cells of less than 0.1 µM.

As for `COCCNCc1cc2ncn(-c3cc(-c4ccc(F)cc4-c4nc(C#N)cn4C)cc(C4CC4)n3)c(=O)c2[nH]1` [Example 107, 2-[2-[2-cyclopropyl-6-[6-[(2-methoxyethylamino)methyl]-4-oxo-5H-pyrrolo[3,2-d]pyrimidin-3-yl]pyridin-4-yl]-5-fluorophenyl]-1-methylimidazole-4-carbonitrile], the IC50 at Cbl-b was less than 0.1 µM. In the assay with Jurkat cells, the EC50 was less than 0.1 µM.

`COCCN(C)Cc1cc2ncn(-c3cc(-c4ccc(F)cc4-c4nc(C#N)cn4C)cc(C4CC4)n3)c(=O)c2[nH]1` [Example 108, 2-{2-[6-cyclopropyl-2-(2-{[(2-methoxyethyl)-N-methylamino]methyl}-7-oxo-1,6-dihydro-1,4,6-triaza-6-indenyl)-4-pyridyl]-5-fluorophenyl}-1-methyl-4-imidazolecarbonitrile] returned an IC50 on Cbl-b of less than 0.1 µM. Also, the EC50 in the assay on Jurkat cells is less than 0.1 µM.

As a reminder, the IC50 is the concentration that gives 50% inhibition. A low value points to inhibition by little substance. As a reminder, the EC50 is the concentration giving half of the maximal effect.
